Laboratory results reported in patent publication US20150219543A1, “CELL EVALUATION METHOD” (HAMAMATSU PHOTONICS K.K., priority 2014, published 2015).

System: human living fibroblast-derived 253G1 iPS cell strain
Assay: Physical cell length (cell thickness) by reflecting quantitative phase microscope
Format: cell-based
Conditions: 253G1 iPS cells on feeder, medium with 12.5 μM retinoic acid from 2nd day after seeding, further cultured 4 days (differentiated cell)
Description: On a 35 mm-diameter glass bottom dish with antireflection coating, a human living fibroblast-derived 253G1 iPS cell strain was seeded at 10-20 colonies/dish, and cultured on a feeder using a medium containing a final concentration of 4 ng/mL of human basic fibroblast growth factor (Primate ES Medium, ReproCELL Incorporated, Trade name: RCHEMD001). The size of one colony was approximately 200 μm. For the feeder cell, a mouse lung fibroblast cell was used. The cell was cultured until the 3rd day after the seeding. The medium was exchanged once a day.
The sample for differentiation of the iPS cell was transferred to a medium containing a final concentration of 4 ng/mL of human basic fibroblast growth factor and 12.5 μM of retinoic acid (Primate ES Medium) on the 2nd day after the seeding, and further cultured for 4 days. Generally, retinoic acid is used as a reagent for inducing differentiation. […]
For the cells in a 60 μm×80 μm visual field, three-dimensional data was obtained at intervals of 0.125 μm in horizontal direction and 0.32 μm in vertical direction using a reflecting quantitative phase microscope, and a tomographic image was produced from the obtained data. […] From the obtained bottom and surface shapes, a cell thickness (physical length) was measured to calculate a mean value.

Q: `CC1=C(/C=C/C(C)=C/C=C/C(C)=C/C(=O)O)C(C)(C)CCC1` [retinoic acid] was tested. Which “Mean value of the physical cell length” value did it give?
A: 6.25 μm
